# Source: patent US10858360B2, “Tricyclic gyrase inhibitors” (priority 2011, dated 2020)
# Read-outs that look alike come from different tables or passages of the source.
# Assays:
# Type in all cases: cell-based
# [1] = system: K. pneumoniae ATCC 700603; assay: MIC, K. pneumoniae ATCC 700603; conditions: Klebsiella pneumoniae, ATCC700603, read-out: MIC Kpn
# S. aureus ATCC 13709 = assay: MIC, S. aureus ATCC 13709 (Alamar Blue broth microdilution); conditions: for MIC: Staphylococcus aureus
# P. aeruginosa ATCC 15692 = assay: MIC, P. aeruginosa ATCC 15692; conditions: Pseudomonas aeruginosa, ATCC15692; Pa = P. aeruginosa
# E. coli ATCC 25922 = assay: MIC, E. coli ATCC 25922; conditions: for MIC: Escherichia coli
# S. pneumoniae ATCC 51916 = assay: MIC, S. pneumoniae ATCC 51916; conditions: Streptococcus pneumoniae, ATCC51916; Spn = S. pneumoniae
# A. baumannii ATCC 19606 = assay: MIC, A. baumannii ATCC 19606; conditions: Acinetobacter baumannii, ATCC19606; Ab = A. baumannii; strain not given
# [2] = ATCC13709, S. aureus, Alamar Blue read after overnight incubation at 35° C.
# [3] = ATCC25922, E. coli, Alamar Blue read after overnight incubation at 35° C.
# [4] = ATCC25922, Ec = E. coli, strain not given
# [5] = S. aureus, Alamar Blue read after overnight incubation at 35° C.
# [6] = E. coli, Alamar Blue read after overnight incubation at 35° C.
SMILES,MIC (S. aureus ATCC 13709; [2]) [µg/mL],MIC (E. coli ATCC 25922; [3]) [µg/mL],MIC Sa (S. aureus ATCC 13709; [5]) [µg/mL],MIC Ec (E. coli ATCC 25922; [6]) [µg/mL],further results
CNc1cc(F)c(C)c2c1[nH]c1nc(Oc3cnc(C)nc3)nc(N3CC4C[C@@H]3C[C@H]4N)c12 [6.28],≤ 0.5,≤ 0.5,–,–,"MIC [1]: 2 µg/mL; MIC (S. aureus ATCC 13709; ATCC13709, Sa = S. aureus): ≤ 0.5 µg/mL; MIC (P. aeruginosa ATCC 15692): 1 µg/mL; MIC (E. coli ATCC 25922; [4]): ≤ 0.5 µg/mL; MIC (S. pneumoniae ATCC 51916): ≤ 0.5 µg/mL; MIC (A. baumannii ATCC 19606): ≤ 0.5 µg/mL"
CNc1cc(F)cc2c1[nH]c1nc(Oc3cnc(C(C)O)nc3)nc(N3CC4(CC[C@H]4N)C3)c12 (stereo partly drawn) [4.410],≤ 0.5,≤ 0.5,–,–,"MIC [1]: 2 µg/mL; MIC (S. aureus ATCC 13709; ATCC13709, Sa = S. aureus): ≤ 0.5 µg/mL; MIC (P. aeruginosa ATCC 15692): 1 µg/mL; MIC (E. coli ATCC 25922; [4]): ≤ 0.5 µg/mL; MIC (S. pneumoniae ATCC 51916): ≤ 0.5 µg/mL; MIC (A. baumannii ATCC 19606): 2 µg/mL"
CNc1cc(F)cc2c1[nH]c1nc(Oc3cnc4cccnc4c3)nc(N3CC4(CC4N)C3)c12 (stereo not drawn) [4.042],–,–,≤0.5,≤0.5,–
CNc1cccc2c1[nH]c1nc(Sc3cncc(S(N)(=O)=O)c3)nc(N3CC4C(N)C4C3)c12 (stereo not drawn) [1.41],4,8,–,–,–
CNc1cc(F)cc2c1[nH]c1nc(Oc3cnc(N4CC(O)C4)nc3)nc(N3C[C@H](N)C4(CC4)C3)c12 [4.299],≤ 0.5,4,–,–,–
CNc1cc(F)cc2c1[nH]c1nc(Oc3cnc(C4CCC4)nc3)nc(N3C[C@H](N)C4(CC4)C3)c12 [4.287],≤ 0.5,≤ 0.5,–,–,–
CNc1cc(F)cc2c1[nH]c1nc(Oc3cnc(C)nc3)nc(N3CC(N)C4(CC4)C3)c12 (stereo not drawn) [4.068],–,–,≤0.5,≤0.5,–
CNc1c(F)ccc2c1[nH]c1nc(Oc3cncnc3)nc(N3CC4C(N)C4C3)c12 (stereo not drawn) [6.02],–,–,–,–,MIC Sa (S. aureus ATCC 13709): ≤0.5 µg/mL; MIC Ec (E. coli ATCC 25922): ≤0.5 µg/mL
CNc1cc(F)cc2c1[nH]c1nc(Oc3cnc(C4CC4)nc3)nc(N3CC4CC4(CN)C3)c12 (stereo not drawn) [4.246],≤ 0.5,≤ 0.5,–,–,–
CNc1cc(F)cc2c1[nH]c1nc(Oc3ccc4c(N)nc(C)nc4c3)nc(N3CC4C(N)C4C3)c12 (stereo not drawn) [4.288],–,–,4,>16,–
CNc1cc(F)cc2c1[nH]c1nc(Oc3cnc(C)nc3)nc(N3CC4CNCCC43)c12 (stereo not drawn) [4.082],–,–,1,8,–
CNc1cccc2c1[nH]c1nc(Oc3cnc4c(c3)ncn4C)nc(N3CC4C(N)C4C3)c12 (stereo not drawn) [3.36],≤ 0.5,2,–,–,–
CNc1cc(F)cc2c1[nH]c1nc(Oc3cnc(C)nc3)nc(N3CCCC(N)CC3)c12 (stereo not drawn) [4.071],≤ 0.5,2,–,–,–
CNc1cc(F)cc2c1[nH]c1nc(Oc3cccnc3)nc(N3CC4CC(N)C4C3)c12 (stereo not drawn) [4.348],–,–,≤0.5,≤0.5,–
CNc1cc(F)cc2c1[nH]c1nc(Oc3cnc(C(C)C)nc3)nc(N3CC4CC(N)C4C3)c12 (stereo not drawn) [4.234],–,–,≤0.5,1,–
CNc1cc(F)cc2c1[nH]c1nc(Oc3cnc(C(N)=O)nc3)nc(N3C[C@H]4C[C@@H](N)[C@H]4C3)c12 [4.374],≤ 0.5,4,–,–,–
CNc1cc(F)cc2c1[nH]c1nc(Oc3ccc4nc[nH]c(=O)c4c3)nc(N3CC4C(N)C4C3)c12 (stereo not drawn) [4.231],–,–,≤0.5,2,–
CNc1cc(F)cc2c1[nH]c1nc(Oc3cnc(N)nc3)nc(N3CC4C[C@@H](N)C4C3)c12 (stereo partly drawn) [4.190],≤ 0.5,1,–,–,–

SMILES,MIC (S. aureus ATCC 13709; [2]) [µg/mL],MIC (E. coli ATCC 25922; [3]) [µg/mL],MIC Sa (S. aureus ATCC 13709; [5]) [µg/mL],MIC Ec (E. coli ATCC 25922; [6]) [µg/mL],further results
CNc1cccc2c1[nH]c1nc(Sc3cnc4ccc[n+]([O-])c4c3)nc(N3CCC4(CC4N)C3)c12 (stereo not drawn) [1.39],–,–,≤0.5,1,–
CNc1cccc2c1[nH]c1nc(Sc3cnc4ccc[n+]([O-])c4c3)nc(N3CC4C(N)C4C3)c12 (stereo not drawn) [1.13],–,≤ 0.5,≤0.5,–,–
CNc1cc(F)cc2c1[nH]c1nc(Oc3cnc(N4CC(C)(N)C4)nc3)nc(N3C[C@H](N)C4(CC4)C3)c12 [4.340],–,–,1,2,–
CNc1cc(F)cc2c1[nH]c1nc(Oc3cnc(C#N)c(C)c3)nc(N3C[C@H](N)C4(CC4)C3)c12 [4.324],–,–,≤0.5,≤0.5,–
Cc1ncc(Oc2nc(N3C[C@H](N)C4(CC4)C3)c3c(n2)[nH]c2c(N(C)C(=O)[C@H](C)N)cc(F)cc23)cn1 [4.423],> 16,> 16,–,–,–
CNc1cc(F)cc2c1[nH]c1nc(Oc3cncc(Cl)c3)nc(N3CC4C[C@@H](N)C4C3)c12 (stereo partly drawn) [4.274],≤ 0.5,≤ 0.5,–,–,–
CNc1cc(F)c(C)c2c1[nH]c1nc(Oc3cnc(C)nc3)nc(NC3CCCCC3N)c12 (stereo not drawn) [6.22],–,–,–,–,MIC Sa (S. aureus ATCC 13709): >16 µg/mL; MIC Ec (E. coli ATCC 25922): >16 µg/mL
CNc1cc(F)cc2c1[nH]c1nc(Oc3cnc(N)nc3)nc(N3CC(NC(=O)CN)C4(CC4)C3)c12 (stereo not drawn) [4.182],–,–,2,16,–
CNc1cc(F)cc2c1[nH]c1nc(Oc3cnc4c(c3)OCCO4)nc(N3CC4CC(N)C4C3)c12 (stereo not drawn) [4.294],≤ 0.5,1,–,–,–
CNc1cc(F)cc2c1[nH]c1nc(Oc3cnc(C)nc3)nc(N3CC4CC(N)CC4C3)c12 (stereo not drawn) [4.104],–,–,≤0.5,≤0.5,–
CNc1cccc2c1[nH]c1nc(Oc3cnc(N4CCOCC4)nc3)nc(N3CC4C(N)C4C3)c12 (stereo not drawn) [3.26],> 16,> 16,–,–,–
CNc1cc(F)cc2c1[nH]c1nc(Oc3cnc(N)nc3)nc(N3C[C@H]4CCN[C@H]4C3)c12 [4.187],≤ 0.5,2,–,–,–
CNc1cc(F)cc2c1[nH]c1nc(Oc3ccc(C(C)=O)nc3)nc(N3CC4CCNC4C3)c12 (stereo not drawn) [4.309],–,–,≤0.5,≤0.5,–
CNc1cccc2c1[nH]c1nc(Oc3cncnc3)nc(N3CCC(CN)C3)c12 (stereo not drawn) [3.58],32,> 64,–,–,–
COc1nccc2c1[nH]c1nc(Sc3cnc4cccnc4c3)nc(N3CC4C(N)C4C3)c12 (stereo not drawn) [7.03],2,> 64,–,–,–
CNc1cc(F)cc2c1[nH]c1nc(Oc3cncnc3)nc(N3CCCC(C)(N)C3)c12 (stereo not drawn) [4.024],≤ 0.5,2,–,–,–
CNc1cc(F)cc2c1[nH]c1nc(Oc3cncnc3)nc(N3C[C@H](N)C[C@H]3C)c12 [4.029],4,16,–,–,–
CNc1cccc2c1[nH]c1nc(Sc3cnc4ccc[n+]([O-])c4c3)nc(N3CC(CNC(=O)c4cn(C)nc4C(F)(F)F)C3)c12 [1.21],≤ 0.5,> 64,–,–,–
